Paper PMC4282894, “Effect of Bile Salt Hydrolase Inhibitors on a Bile Salt Hydrolase from Lactobacillus acidophilus” (Pathogens, 2014)
Structures can show the parent of a compound that is named as a salt.

What follows are compounds tested against T1, L. acidophilus BSH (rBSH; LaciP) (Lactobacillus acidophilus, UniProt A5HKP3) (assay: two-step ninhydrin BSH assay (glycine release from glycocholic acid)). Details: not given.
T1 construct: full-length BSH (316 aa), C-terminal His tag, pET-21b(+), E. coli BL21(DE3), Ni-NTA; about 32 kDa on SDS-PAGE
Assay type: biochemical
Source text: two-step ninhydrin BSH assay (glycine release from glycocholic acid) on L. acidophilus BSH (rBSH; LaciP)

T1 sequence (A5HKP3 whole entry): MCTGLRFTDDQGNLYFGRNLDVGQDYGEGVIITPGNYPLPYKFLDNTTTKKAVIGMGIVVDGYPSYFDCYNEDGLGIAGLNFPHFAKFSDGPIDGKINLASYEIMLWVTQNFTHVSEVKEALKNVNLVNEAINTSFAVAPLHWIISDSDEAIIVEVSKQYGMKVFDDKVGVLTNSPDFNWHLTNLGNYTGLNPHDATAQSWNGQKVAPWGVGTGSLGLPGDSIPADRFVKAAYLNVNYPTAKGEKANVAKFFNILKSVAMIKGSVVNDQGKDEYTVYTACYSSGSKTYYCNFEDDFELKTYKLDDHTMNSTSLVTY

Structure (SMILES)	inhibition at 2500 µM [%]	inhibition at 500 µM [%]
O=C(/C=C/c1ccc(O)c(O)c1)OCCc1ccccc1 [Caffeic Acid Phenethyl Ester]	71.8	
CN(C)[C@@H]1C(O)=C(C(N)=O)C(=O)[C@@]2(O)C(O)=C3C(=O)c4c(O)ccc(Cl)c4[C@@H](O)[C@H]3C[C@@H]12 [Demeclocycline Hydrochloride]	99.6	
C[C@H]1c2cccc(O)c2C(O)=C2C(=O)[C@]3(O)C(O)=C(C(N)=O)C(=O)[C@@H](N(C)C)[C@@H]3[C@@H](O)[C@@H]21 [Doxycycline Hydrochloride]	98.3	
O=C(O[C@@H]1Cc2c(O)cc(O)cc2O[C@@H]1c1ccc(O)c(O)c1)c1cc(O)c(O)c(O)c1 [Epicatechin monogallate]	52.8	
O=c1c(O)c(-c2ccc(O)c(O)c2)oc2c(O)c(O)cc(O)c12 [Gossypetin]	96.1	
CCC[C@@H]1C[C@@H](C(=O)N[C@@H]([C@H]2O[C@H](SC)[C@H](O)[C@@H](O)[C@H]2O)[C@@H](C)O)N(C)C1 [Lincomycin]	26.8	
CC1=CC(=O)c2ccccc2C1=O [Menadione]	97.9	
C=C1c2cccc(O)c2C(=O)C2=C(O)[C@]3(O)C(=O)C(C(N)=O)=C(O)[C@@H](N(C)C)[C@@H]3[C@@H](O)[C@H]12 [Methacycline Hydrochloride]	99.2	
CN(C)[C@@H]1C(=O)C(C(N)=O)=C(O)[C@@]2(O)C(=O)C3=C(O)c4c(O)cccc4[C@@](C)(O)[C@H]3[C@H](O)[C@@H]12 [Oxytetracycline]	99.6	
O=c1c(O)cccc2cc(O)c(O)c(O)c12 [Purpurogallin]	36.1	
Cc1cc2nc3c(=O)[nH]c(=O)nc-3n(C[C@H](O)[C@H](O)[C@H](O)CO)c2cc1C [Riboflavin]		96.5

Same assay, conditions: 2500 µM; 5 mM glycocholic acid, about 10 mM DTT, 0.1 M sodium phosphate pH 6.0, 37 °C, 30 min preincubation

Structure (SMILES)	% Inhibition [%]
O=[N+]([O-])c1cc([As](=O)(O)O)ccc1O [Roxarsone]	48.6
